Test [1] is described as follows: Nitrous oxide formed in the oxidation of 15NH2-labeled cyanamide by catalase/glucose-glucose oxidase using gas chromatography.
Test [2] is described as follows: Nitrous oxide formed in the oxidation of U-labeled [N15]-cyanamide by catalase/glucose-glucose oxidase using gas chromatography.
A short description of test [3]: Nitrous oxide formed in the oxidation of unlabeled cyanamide by catalase/glucose-glucose oxidase using gas chromatography.

Values joined by “and” are separate entries in the source; they are usually repeats but may differ in a detail not shown here. Equal values may be shown once.

Consider `N#CN`, for which the N20 formed in test [1] is 186 nM; in test [2] it was 538 nM; in test [3] it was 497 nM and 440 nM.

Source of the values: ChEMBL document CHEMBL1125018, “Evidence for nitroxyl in the catalase-mediated bioactivation of the alcohol deterrent agent cyanamide” (J Med Chem, 1990).
